# Data from article PMC4076079, “Selective inhibitors of a PAF biosynthetic enzyme lysophosphatidylcholine acyltransferase 2” (Journal of Lipid Research, 2014).
# Where “and” joins values, the source holds several entries; their conditions need not be identical. Equal values may be shown once.
# How the values were obtained:
# hLPCAT1 = molecular target: T1, hLPCAT1 (Homo sapiens, UniProt Q8NF37); assay: acyltransferase activity assay, DPPC product by LC-MS/MS; format: biochemical; details: for IC50: 0, 0.2, 0.6, 2, 6 and 20 μM of each compound in triplicate, LC-MS/MS, read-out: IC50, product DPPC, enzyme hLPCAT1; for percentage inhibition, product DPPC, hLPCAT1: 20 μM compound, microsomal fractions of nonstimulated CHO-S-PAFR cells, n = 3, mean ± SEM
# T1 construct: expressed in transfected cells
# T1 sequence (Q8NF37 1-534): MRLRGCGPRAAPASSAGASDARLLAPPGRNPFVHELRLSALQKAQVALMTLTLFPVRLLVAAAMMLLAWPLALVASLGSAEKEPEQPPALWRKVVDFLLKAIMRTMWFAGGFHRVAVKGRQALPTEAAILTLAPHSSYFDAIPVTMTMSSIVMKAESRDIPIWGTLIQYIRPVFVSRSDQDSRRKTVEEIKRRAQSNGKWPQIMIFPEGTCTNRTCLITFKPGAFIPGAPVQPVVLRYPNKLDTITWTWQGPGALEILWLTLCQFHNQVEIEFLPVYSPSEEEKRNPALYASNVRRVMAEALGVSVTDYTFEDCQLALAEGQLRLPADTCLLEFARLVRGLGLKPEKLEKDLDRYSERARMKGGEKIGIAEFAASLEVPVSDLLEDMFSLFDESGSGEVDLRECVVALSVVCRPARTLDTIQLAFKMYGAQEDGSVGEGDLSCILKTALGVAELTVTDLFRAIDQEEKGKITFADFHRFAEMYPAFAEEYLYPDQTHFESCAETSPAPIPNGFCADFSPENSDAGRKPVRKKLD
# Description: (§1) Microsomal protein fractions (0.5 μg) supplemented with the indicated compound concentrations were added to the reaction mixture containing 100 mM Tris-HCl (pH 7.4), 1 μM CaCl2, 0.015% Tween-20, and two substrates. For acetyltransferase activity, the substrates were 1 mM acetyl-CoA and 5 μM d4-lyso-PAF; for the acyltransferase activity of LPCAT1 or LPCAT2, the substrates were, respectively, palmitoyl-CoA and d31-16:0 LPC or arachidonoyl-CoA and d4-lyso-PAF (all 5 μM). Each lysophospholipid contained fatty acid at the sn-1 position. After incubation at 37°C for 5 min, the reactions were stopped by adding 300 μl methanol containing 17:0 LPC or 14:0/14:0 PC as an internal standard. Deuterium-labeled products were analyzed by LC-MS/MS (Waters, Milford, MA and Thermo Scientific, Waltham, MA). […]
# (§2) Steps 2 to 5 screening: 96-well plate assay
# (§3) Acetyltransferase and acyltransferase assays were developed in 96-well plates. The microsomal hLPCAT2, obtained from mcPAF-stimulated CHO-S-PAFR cells was used in steps 1, 2, and 5. The microsomal hLPCAT1 obtained from unstimulated CHO-S cells was used in steps 3 to 5. Each well of the 96-well plates contained 30 µl of 15 µg/ml protein, 600 nl of 2 mM compound, 30 µl buffer C, and two substrates (Fig. 1B and C).
# (§4) Substrate concentrations were as follows: acetyl-CoA, 250 or 1000 µM acetyl-CoA; […]
# (§5) arachidonoyl-CoA, 5 µM; palmitoyl-CoA, 5 µM; d4-lyso-PAF, 5 µM; and d31-LPC, 5 µM.
# For step 5, compound concentrations were 0, 0.167, 0.67, 2, 6.7, and 20 µM. The deuterium-labeled products were measured by LC-MS/MS. Percentage inhibition (steps 2 to 4) or IC50 (step 5) was used as the hit criterion. […]
# (§6) Step 7 screening: species-specific differences
# (§7) To evaluate the effects on the activity of mouse or human LPCAT1 and LPCAT2, each microsomal fraction was obtained using CHO-S-PAFR cells with or without mcPAF (200 nM) stimulation for 5 min. Acetyltransferase and acyltransferase assays were performed with 20 µM of each compound. Percentage inhibition was calculated in each
# hLPCAT2 = molecular target: T2, hLPCAT2 (Homo sapiens, UniProt Q7L5N7); assay: lyso-PAFAT (acetyltransferase) activity assay, PAF product by LC-MS/MS; format: biochemical; details: for IC50: 0, 0.2, 0.6, 2, 6 and 20 μM of each compound in triplicate, LC-MS/MS, read-out: IC50, product PAF, enzyme hLPCAT2; for percentage inhibition, product PAF, hLPCAT2: 20 μM compound, microsomal fractions of nonstimulated CHO-S-PAFR cells, n = 3, mean ± SEM; for selectivity for hLPCAT2 over hLPCAT1: from IC50 values of Table 1
# T2 construct: expressed in transfected cells; host or cells: CHO-S-PAFR cells (microsomal fraction), with or without mcPAF stimulation
# T2 sequence (Q7L5N7 1-544): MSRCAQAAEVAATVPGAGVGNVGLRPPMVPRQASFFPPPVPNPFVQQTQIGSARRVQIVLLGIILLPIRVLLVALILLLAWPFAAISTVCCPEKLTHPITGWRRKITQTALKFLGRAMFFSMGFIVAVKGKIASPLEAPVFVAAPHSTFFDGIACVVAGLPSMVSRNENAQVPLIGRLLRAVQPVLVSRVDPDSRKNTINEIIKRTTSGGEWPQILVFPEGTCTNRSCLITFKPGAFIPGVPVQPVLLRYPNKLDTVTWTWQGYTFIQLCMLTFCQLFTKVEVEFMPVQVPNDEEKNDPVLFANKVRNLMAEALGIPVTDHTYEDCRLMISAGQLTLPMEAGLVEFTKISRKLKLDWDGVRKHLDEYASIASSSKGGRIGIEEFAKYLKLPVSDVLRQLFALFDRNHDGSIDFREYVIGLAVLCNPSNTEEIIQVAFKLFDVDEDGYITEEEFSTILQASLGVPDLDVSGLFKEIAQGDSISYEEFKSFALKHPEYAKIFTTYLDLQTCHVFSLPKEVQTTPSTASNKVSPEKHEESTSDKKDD
# Description: as §1, §2, §3, §4, §5
# For step 5, compound concentrations were 0, 0.167, 0.67, 2, 6.7, and 20 µM. The deuterium-labeled products were measured by LC-MS/MS. Percentage inhibition (steps 2 to 4) or IC50 (step 5) was used as the hit criterion.
# Step 6 screening: BSA assay
# The acetyltransferase assay was performed with 20 µM of each compound and microsomal hLPCAT2 from step 1. The assay mixture contained 0.4% BSA and two substrates for lyso-PAFAT activity: 1 mM acetyl-CoA and 5 µM d4-lyso-PAF. Percentage inhibition values were determined.
# as §6, §7
SMILES,IC50 (hLPCAT1) [nM],"percentage inhibition, product DPPC, hLPCAT1 (hLPCAT1) [percentage]",IC50 (hLPCAT2),"percentage inhibition, product PAF, hLPCAT2 (hLPCAT2) [percentage]",selectivity for hLPCAT2 over hLPCAT1 (hLPCAT2)
"CC(C)OC(=O)c1ccc(N2C(=O)C(Cl)=C(Cl)C2=O)cc1 [TSI-01, propan-2-yl 4-(3,4-dichloro-2,5-dioxopyrrol-1-yl)benzoate]",> 20000,25.3 ± 8.7,470 nM,99.8 ± 0.1,approximately 10 fold
"CCCCOC(=O)c1ccc(N2C(=O)C(Cl)=C(Cl)C2=O)cc1 [TSI-11, butyl 4-(3,4-dichloro-2,5-dioxopyrrol-1-yl)benzoate]",> 20000,14.2 ± 4.8,~100 nM and 140 nM,99.4 ± 0.2,approximately 10 fold

# Now from value to compound:
IC50 (hLPCAT1) [nM],"percentage inhibition, product DPPC, hLPCAT1 (hLPCAT1) [percentage]",IC50 (hLPCAT2),"percentage inhibition, product PAF, hLPCAT2 (hLPCAT2) [percentage]",selectivity for hLPCAT2 over hLPCAT1 (hLPCAT2),SMILES
> 20000,19.5 ± 8.0,5500 nM,90.8 ± 3.0,approximately 10 fold,CC(C)OC(=O)c1ccc(N2C(=O)C(Cl)=C(Nc3ccccc3O)C2=O)cc1 [TSI-07]
> 20000,,2170 nM,,,"O=C1C(Cl)=C(N2CCOCC2)C(=O)N1c1ccc(Oc2ccccc2)cc1 [TSI-02, 3-chloro-4-morpholin-4-yl-1-(4-phenoxyphenyl)pyrrole-2,5-dione]"
> 20000,23.9 ± 3.4,~100 nM and 130 nM,99.5 ± 0.2,approximately 10 fold,CCCOC(=O)c1ccc(N2C(=O)C(Cl)=C(Cl)C2=O)cc1 [TSI-10]
